Laboratory results reported in patent US20240076327A1 (priority 2020, published 2024).
Where a SMILES comes first, the peptide text is derived from it. Bridges are numbered along the chain shown (N, C = ends). Where no end group is shown, it is not given here.

Assays:
[1] = buffer, 0 h, pH 9
physchem = settings: buffer, pH 9

| Molecule | observed overall stability (percentage of remaining parent peak) [1] [%] | remaining at 24 h (physchem) [%] | remaining at 48 h (physchem) [%] | remaining at 72 h (physchem) [%] | remaining at 96 h (physchem) [%] | remaining at 120 h (physchem) [%] | remaining at 144 h (physchem) [%] | remaining at 168 h (physchem) [%] | remaining at 360 h (physchem) [%] |
| --- | --- | --- | --- | --- | --- | --- | --- | --- | --- |
| CC[C@H](C)[C@H](NC(=O)[C@H](C)N)C(=O)N[C@H]1CSSC[C@@H]2NC(=O)[C@@H]3CSSC[C@@H](C(=O)N[C@@H](CCCNC(=N)N)C(=O)N[C@@H](CCCCN)C(=O)N[C@@H](CC(=O)O)C(=O)N[C@@H](CCC(=O)O)C(=O)N4CCC[C@H]4C(=O)O)NC(=O)[C@H](Cc4ccc(O)cc4)NC(=O)[C@H](CO)NC(=O)[C@H](C(C)C)NC(=O)CNC(=O)[C@H](CC(N)=O)NC(=O)[C@H](CO)NC(=O)[C@H](CCC(=O)O)NC(=O)[C@H](C)NC(=O)[C@H](CCCCN)NC(=O)[C@H](CSSC[C@H](NC(=O)[C@@H]4CCCN4C(=O)[C@H](CCCNC(=N)N)NC(=O)[C@H](CC(=O)O)NC(=O)[C@H](C)NC(=O)CNC(=O)[C@H]([C@@H](C)O)NC1=O)C(=O)N[C@@H](C)C(=O)N[C@@H](C)C(=O)N[C@H]1CSSC[C@H](NC1=O)C(=O)N1CCC[C@H]1C(=O)N3)NC(=O)[C@H](CO)NC(=O)[C@H]([C@@H](C)O)NC(=O)CNC(=O)[C@@H]1CCCN1C2=O [κ-hexatoxin-Hv1c] (H-AICTGADRPCAACCPCCPGTSCKAESNGVSYCRKDEP-OH; disulfide 3-17, 10-22, 13-14, 16-32) | 100 | 91 | 80 | 75 | 61 | 51 | 41 | 30 | 9 |
| GSQYCVPVDQPCSLNTQPCCDDATCTQERNENGHTVYYCRA (disulfide 5-20, 12-25, 19-39) [GS-ω/κ-hexatoxin-Hv1h] | 100 | 94 | 91 | 82 | 83 | 83 | 81 | 69 | 50 |
